“And” between values parts separate entries of the source, which are not always exact repeats. Equal entries are not always repeated. “Also recorded” adds a separate entry of the source.
Tests used:
[1] = test system: Male Sprague-Dawley rats; test: Time to emergence after a standardized isoflurane general anesthetic; format: in vivo, rat
Description: Animal Care and Use. Animal studies were approved by the Subcommittee on Research Animal Care, Massachusetts General Hospital, Boston, Mass. Male Sprague-Dawley rats (Charles River Laboratories, Wilmington, Mass.) weighing 351-565 grams were used. […] Separate groups of animals were used for the electroencephalogram (4 rats), plethysmography (4 rats), and blood gas studies (6 rats). In animals that underwent multiple experiments, each animal was provided with at least 3 days of rest between experiments. Animals were kept on a standard day-night cycle (lights on at 7 AM, and off at 7 PM), and all experiments were performed during the day.
Preparation and Delivery of Drugs. […] Droperidol was diluted in normal saline to a final volume of 0.5 ml prior to administration. […]

[2] = test system: Male Sprague-Dawley rats; test: Return of righting during continuous isoflurane general anesthesia; format: in vivo, rat
Text: Anesthetizing Protocol. Rats were anesthetized in an induction chamber with 2-3% isoflurane in oxygen prior to placement of a lateral tail vein intravenous catheter (24 gauge, 19 mm). A rectal temperature probe was inserted and the animal was placed in a cylindrical acrylic anesthetizing chamber. The chamber was custom-built and equipped with ports for anesthetic gas delivery, sampling, and scavenging, as well as intravenous drug administration. A heating pad was placed under the chamber to keep the animal warm, and the body temperature was kept between 36.5° C. and 37.4° C.
The rat was positioned supine in the anesthetizing chamber and the inhaled concentration of isoflurane was initially fixed at 2.0% for 20 minutes, then reduced to 0.8% over 15-20 minutes, and then maintained at 0.8% for 40 minutes. If the rat made any purposeful movement, the isoflurane concentration was increased by 0.1% and maintained for another 40 minutes. This process was repeated until the final dose of isoflurane sufficient to maintain loss of righting reflex was established, and this dose was administered throughout the remainder of the experiment. This protocol was based on previously published methods described by Alkire et al.^4,11 After the final 40-minute equilibration period, normal saline (2 ml) was administered and the rectal temperature probe was removed. Five minutes later, methylphenidate was administered.
Prism 4.03 (Graphpad Software, San Diego, Calif.) and Matlab (Mathworks, Natick, Mass.) were used for statistical analysis and where possible, results are reported in terms of 95% confidence intervals based on z-tests, t-tests or Mann-Whitney tests. […] For this computation the inventors assumed a binomial model as the sampling density or likelihood function for the propensity of animals in a given group to have return of the righting response. The inventors took as the prior density for each group the uniform density on the interval (0, 1) because it is uninformative. Because of the conjugacy between the prior and the likelihood the posterior density for each group is a beta density.^17 The posterior densities for the differences in the proportion of animals that had return of righting were then computed by using standard Matlab simulation procedures. Instead of p-values for the Bayesian analyses the inventors computed the posterior probability that the propensity to right was greater in on group compared to the other.

[3] = test system: rats; test: D-MPH versus L-MPH reversal of isoflurane anesthesia, loss of righting reflex (LORR); format: in vivo, rat; conditions: for reversal of isoflurane-induced general anesthesia: intravenous, rat animal model; for rats with restoration of consciousness: intravenous dose of 0.5 mg/kg; for rats with restoration of consciousness / rate of % recovery of consciousness / time to emergence, D-MPH compared with L-MPH: isoflurane anesthesia; for rate of % recovery of consciousness / time to emergence, D-MPH compared with L-MPH: FIG. 7
Text: Pure D-MPH (Focalin) is currently available in oral form for Attention Deficit Hyperactivity Disorder (ADHD), but it is not available for intravenous use.

[4] = test system: Male Sprague-Dawley rats; test: Electroencephalogram recording and spectral analysis during continuous isoflurane; format: in vivo, rat; conditions: isoflurane 1.0%
Description: Electroencephalogram electrode placement, recording, and spectral analysis. Extradural electroencephalogram electrodes were surgically implanted at least 7 days prior to recording. General anesthesia was induced with xylazine (5-10 mg/kg IP) and ketamine (50-100 mg/kg IP), and supplemented with isoflurane (1-2%). A microdrill was used to make four holes at the following stereotactic coordinates: A0L0, A6L3, A6L-3, and A10L2 relative to the lambda.^12 Polytetrafluoroethylene coated, 200 μm diameter stainless steel electrode wires (A-M Systems, Sequim, Wash.) were inserted and secured with small stainless steel screws, and permanently fixed with dental acrylic cement. Carprofen (5 mg/kg SC) was administered for analgesia on the day of surgery, as well as on post-operative days 1, and 2. The potential difference between electrodes A0L0 and A6L3, or between electrodes A0L0 and A6L-3 (whichever gave less motion artifact), was referenced to A10L2 and recorded using a QP511 Quad AC Amplifier System (Grass Instruments, West Warwick, R.I.) and a USB-6009 14-bit data acquisition board (National Instruments, Austin, Tex.). Data was filtered between 0.3-100 Hz. No line filter was used. The sampling rate was 512 Hz. After baseline recordings were taken for 10 minutes while awake, rats were anesthetized with isoflurane and placed in the anesthetizing chamber. […] Therefore the inventors performed the electroencephalogram experiments in the prone position with the isoflurane dose fixed at 1.0%. These modifications allowed us to minimize electroencephalogram motion artifacts without restraining the animals. After a minimum isoflurane exposure of 40 minutes, normal saline was administered and the temperature probe was removed. Five minutes later, methylphenidate was administered. Spectral analysis was performed using Matlab 7.11 (Mathworks, Natick, Mass.) and the Chronux software (Cold Spring Harbor, N.Y.). 13 Spectrograms were calculated using sliding windows of 2 sec duration stepped through 0.05 sec. For each window, multitaper spectrum estimation was performed using 5 tapers. […]

[5] = test system: Male Sprague-Dawley rats; test: Arterial blood gas analysis during isoflurane general anesthesia; format: in vivo, rat
Description: (§1) Arterial Blood Gas and Hemodynamic Recordings. Rats with femoral artery catheters (Charles River Laboratories, Wilmington, Mass.) were placed in the anesthetizing chamber after lateral tail vein IV catheter placement. The isoflurane dose was kept constant at 1.5%. Mean arterial blood pressure and heart rate were measured using a pressure transducer (TruWave, Edwards Life Sciences, Irvine, Calif.) interfaced with a custom-built amplifier (AD620 operational amplifier, Jameco Electronics, Belmont, Calif.). […] Samples were promptly analyzed using CG4+ cartridges in a Vetscan iStat 1 (Abaxis, Union City, Calif.) blood gas analyzer.
To provide a conservative check on the assessments made by the 95% confidence intervals and the parametric tests and non-parametric tests were also used to assess statistical significance. The Mann-Whitney test was used to test the hypothesis that methylphenidate hastens time to emergence from isoflurane general anesthesia, and to test the dose-dependence of methylphenidate on time to righting during continuous isoflurane general anesthesia. A paired t-test was used to test the hypothesis that methylphenidate produces a respiratory alkalosis during isoflurane general anesthesia. The inventors used the two-sided Kolmogorov-Smirnov test with a Bonferonni correction to compare spectra in animals before and after receiving methylphenidate. The inventors considered a result to be statistically significant based on the 95% confidence intervals comparing two groups if zero was not in the interval, based on hypothesis tests if the p-values were less than 0.05 or in the case of the Bayesian analyses, if the relevant posterior probability was greater than 0.95.

[6] = test system: Male Sprague-Dawley rats; test: Hemodynamic recordings (mean arterial blood pressure, heart rate) during isoflurane general anesthesia; format: in vivo, rat; conditions: individual animals, isoflurane 1.5%
Description: as §1

[7] = test system: rats; test: Time to emergence after a single dose of propofol; format: in vivo, rat; conditions: propofol 8 mg/kg IV, MPH 5 mg/kg IV 45 sec later; mean±SE; n=6
Description: For the first experiment, a lateral tail vein IV catheter was placed in rats under isoflurane anesthesia. […] Time to emergence was defined as the time until restoration of righting occurred. Statistical analysis was performed using the Mann-Whitney test.

[8] = test system: rats; test: Restoration of righting and EEG during continuous propofol anesthesia; format: in vivo, rat; conditions: MPH 5 mg/kg IV, continuous propofol infusion
Description: For the second experiment, 2 IV catheters were placed and a continuous propofol infusion was started in rats with pre-implanted EEG electrodes. After establishing the minimum plasma concentration of propofol required to maintain loss of righting, the second IV catheter was flushed with NS, and 5 minutes later MPH (5 mg/kg) was administered.

[9] = biological target: norepinephrine transporter (Homo sapiens, UniProt P23975); conditions: read-out: Ki, norepinephrine transporter; cited from earlier work
norepinephrine transporter, sequence (P23975 whole entry): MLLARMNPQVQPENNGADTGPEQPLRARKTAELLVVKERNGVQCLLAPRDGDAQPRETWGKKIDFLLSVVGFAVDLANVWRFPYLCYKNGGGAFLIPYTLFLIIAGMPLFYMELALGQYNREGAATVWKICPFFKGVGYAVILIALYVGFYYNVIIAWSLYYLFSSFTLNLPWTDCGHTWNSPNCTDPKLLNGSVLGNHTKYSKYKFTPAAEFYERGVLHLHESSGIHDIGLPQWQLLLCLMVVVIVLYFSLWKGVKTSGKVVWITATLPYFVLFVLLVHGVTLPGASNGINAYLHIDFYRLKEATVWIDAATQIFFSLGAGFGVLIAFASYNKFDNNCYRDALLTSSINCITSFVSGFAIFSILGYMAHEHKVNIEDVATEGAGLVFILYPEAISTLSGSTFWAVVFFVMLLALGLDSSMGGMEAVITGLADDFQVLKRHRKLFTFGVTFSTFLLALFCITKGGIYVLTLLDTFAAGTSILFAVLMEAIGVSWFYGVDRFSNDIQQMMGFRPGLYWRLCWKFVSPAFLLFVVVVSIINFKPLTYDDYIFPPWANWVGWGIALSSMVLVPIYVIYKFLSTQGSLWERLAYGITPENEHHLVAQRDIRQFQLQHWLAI

[10] = test system: Male Sprague-Dawley rats; test: Plethysmography during isoflurane general anesthesia; conditions: for Change in mean RR: after vs before methylphenidate 5 mg/kg IV
Description: Plethysmography. Rats were placed in a custom built plethysmography chamber and the isoflurane concentration in the chamber was maintained at 1.5%. […] A differential pressure transducer and demodulator (Models CD15 and MP45-14-871; Validyne Engineering, Northridge, Calif.) were used to convert the chamber pressure to an analog signal. The signal was high pass filtered at 15 sec, acquired at 100 Hz, and analyzed in four second epochs using a USB-6009 data acquisition board (National Instruments, Austin, Tex.) and LabView Software (version 8.5 for Macintosh). Chamber carbon dioxide levels were maintained at or less than 0.5% in the open flow configuration. A heating pad was used to warm the rat from beneath. Chamber air temperature and relative humidity were measured with a thermometer-hygrometer (Fisher Scientific, Pittsburgh, Pa.) and used to estimate tidal volumes during intermittent chamber closure using methods described by Drorbaugh et al.^16

[11] = test system: mice; conditions: cited from earlier work
[12] = test system: rats; conditions: 3 mg/kg of droperidol; cited from earlier work
[13] = children treated with racemic methylphenidate; cited from earlier work
[14] = test system: mice; conditions: uninstrumented mice, rotating anesthetizing chamber; cited from earlier work
[15] = arterial blood 15 minutes after methylphenidate, isoflurane 1.5%, n = 6
[16] = after vs before methylphenidate 5 mg/kg IV, listed as Methylphenidate
[17] = individual animals pretreated with droperidol (0.5 mg/kg IV), isoflurane 1.5%
[18] = individual animals pretreated with normal saline, isoflurane 1.5%

Compound: COC(=O)[C@H](c1ccccc1)[C@H]1CCCCN1 (racemic) [methylphenidate]
- median time to emergence (termination of isoflurane to return of righting) ([1]; methylphenidate 5 mg/kg IV five minutes before end of 45 min isoflurane 1.5%, n=12): 91 s
- median difference in time to emergence versus normal saline ([1]; methylphenidate 5 mg/kg IV, isoflurane 1.5%): 200 s
- median time to righting after methylphenidate ([2]; 0.5 mg/kg IV, continuous inhalation of isoflurane): 348 s
- median time to righting after methylphenidate ([2]; 5 mg/kg IV, continuous inhalation of isoflurane): 181 s
- median difference in time to righting between 0.5 and 5 mg/kg ([2]; continuous inhalation of isoflurane): 173 s
- return of righting after droperidol pretreatment ([2]; droperidol 0.5 mg/kg IV five minutes before methylphenidate 5 mg/kg IV, continuous isoflurane, n=6): None of these animals had return of righting; also recorded: did not induce return of righting in any of the six animals
- signs of arousal ([2]; methylphenidate 0.05 mg/kg IV, continuous isoflurane, six rats): no signs of arousal
- return of righting (rats) ([2]; methylphenidate 0.5 mg/kg IV, continuous isoflurane): 11 of 12
- return of righting (rats) ([2]; methylphenidate 5 mg/kg IV after normal saline, continuous isoflurane): 11 of 12
- time to purposeful movements ([2]; methylphenidate 5 mg/kg, all 12 rats, continuous isoflurane): ≤ 30 s
- reversal of isoflurane-induced general anesthesia [3]: rapidly reversed isoflurane-induced general anesthesia
- EEG changes after methylphenidate with droperidol pretreatment ([4]; droperidol 0.5 mg/kg IV five minutes before methylphenidate 5 mg/kg IV): did not induce electroencephalogram changes consistent with arousal; also recorded: failed to induce these electroencephalogram changes; also recorded: the shift in peak power from delta to theta was absent
- persistence of the active EEG pattern ([4]; methylphenidate 5 mg/kg IV): more than 15 minutes
- P2CO2 after 5 mg/kg IV Methylphenidate (mean) [5, 15]: 35 mmHg
- P2O2 after 5 mg/kg IV Methylphenidate (mean) [5, 15]: 241 mmHg
- pH after 5 mg/kg IV Methylphenidate (mean) [5, 15]: 7.51
- calculated increase in alveolar ventilation (VA) ([5]; from paCO2 pre/post methylphenidate, assuming no change in baseline metabolism): 24±6%
- Change in HR (mean) ([6]; after vs before methylphenidate 5 mg/kg IV): 6 beats per minute and 15 beats per minute
- Change in HR (mean) [6, 16]: −14.2 beats per minute and −7.2 beats per minute and +13.9 beats per minute and +0.72 beats per minute and +0.5 beats per minute and −2.6 beats per minute
- Change in MAP (mean) [6, 16]: +20.5 mmHg and +8.3 mmHg and +3.2 mmHg and −1.4 mmHg and +0.5 mmHg and +7.4 mmHg
- HR after 5 mg/kg IV Methylphenidate (mean) [6]: 386.8 beats per minute and 383.3 beats per minute and 365.5 beats per minute and 360.0 beats per minute and 358.6 beats per minute
- MAP after 5 mg/kg IV Methylphenidate (mean) [6]: 117.1 mmHg and 90.9 mmHg and 91.3 mmHg and 85.2 mmHg and 100.7 mmHg and 90.8 mmHg
- time to emergence (restoration of righting) after a single dose of propofol [7]: 433 ± 24 s
- rats with signs of arousal and restoration of righting within 4 min [8]: 5/6
- time to restoration of righting in the rat with delayed arousal response ([8]; one rat): 25 min
- Ki [9]: 0.15 µM
- Change in mean RR [10, 17]: +4.4 breaths per minute and +2.2 breaths per minute and +3.6 breaths per minute and +4.9 breaths per minute
- Change in mean RR [10, 18]: +29.2 breaths per minute and +9.8 breaths per minute and +50.36 breaths per minute and +18.9 breaths per minute
- RR after 5 mg/kg IV Methylphenidate (mean) [10, 17]: 86.3 breaths per minute and 78.0 breaths per minute and 84.1 breaths per minute and 75.5 breaths per minute
- RR after 5 mg/kg IV Methylphenidate (mean) [10, 18]: 154 breaths per minute and 112.6 breaths per minute and 94.2 breaths per minute and 153.8 breaths per minute and 116.7 breaths per minute
- changes in tidal volume ([10]; methylphenidate 5 mg/kg IV after droperidol 0.5 mg/kg IV, four rats, one increase, three decreases): 4-17%
- changes in tidal volume ([10]; methylphenidate 5 mg/kg IV after normal saline, isoflurane 1.5%): the changes were small and inconsistent
- changes in tidal volume ([10]; methylphenidate 5 mg/kg IV after normal saline, isoflurane 1.5%, listed as Methylphenidate): tidal volume remained essentially unchanged

Compound: O=C(CCCN1CC=C(n2c(=O)[nH]c3ccccc32)CC1)c1ccc(F)cc1 [droperidol]
- purposeful movement in response to droperidol ([2]; droperidol 0.5 mg/kg IV, continuous isoflurane, n=6): None of the animals exhibited purposeful movement
- EEG pattern change after droperidol ([4]; droperidol 0.5 mg/kg IV): no appreciable change
- EC50 for loss of righting [11]: 40 mg/kg
- effect on isoflurane potency [12]: no effect on isoflurane potency

Compound: COC(=O)[C@@H](c1ccccc1)[C@@H]1CCCCN1 [L-MPH, L-threo-methylphenidate]
- rats with restoration of consciousness [3]: 33%
- reversal of isoflurane-induced general anesthesia [3]: rapidly reversed isoflurane-induced general anesthesia

Compound: COC(=O)C(c1ccccc1)C1CCCCN1 [D-MPH, D-threo-methylphenidate]
- rats with restoration of consciousness [3]: 83%
- reversal of isoflurane-induced general anesthesia [3]: rapidly reversed isoflurane-induced general anesthesia
- rate of % recovery of consciousness / time to emergence, D-MPH compared with L-MPH [3]: at a quicker rate than L-MPH
- rate of % recovery of consciousness / time to emergence, D-MPH compared with L-MPH ([3]; listed as D-MGH): faster
- increase in plasma levels [13]: 5 fold

Compound: FC(F)OC(Cl)C(F)(F)F (stereo not shown) [isoflurane]
- dose of isoflurane sufficient to maintain loss of righting ([2]; inhaled, rats, mean±SD): 0.9%±0.1% and 0.9%
- dose for loss of righting [14]: 0.81%

From patent publication US11723589B2 (The General Hospital Corporation, priority 2010, dated 2023)
